Consider eleven molecules from patent publication US20170273961A1, “NOVEL IMINONITRILE DERIVATIVES” (CURADEV PHARMA, PVT. LTD., priority 2014, published 2017).

The structures appear in SMILES notation.

The target of the experiment is T1, IDO1 (Mus musculus, UniProt P28776).
T1 construct: LPS-injected mice have been used as models to study IDO1 expression and activity; from tissue; host or cells: whole animal: LPS-injected C57BL/6 mice, with IDO1 induced in a variety of tissues
T1 sequence (P28776 whole entry): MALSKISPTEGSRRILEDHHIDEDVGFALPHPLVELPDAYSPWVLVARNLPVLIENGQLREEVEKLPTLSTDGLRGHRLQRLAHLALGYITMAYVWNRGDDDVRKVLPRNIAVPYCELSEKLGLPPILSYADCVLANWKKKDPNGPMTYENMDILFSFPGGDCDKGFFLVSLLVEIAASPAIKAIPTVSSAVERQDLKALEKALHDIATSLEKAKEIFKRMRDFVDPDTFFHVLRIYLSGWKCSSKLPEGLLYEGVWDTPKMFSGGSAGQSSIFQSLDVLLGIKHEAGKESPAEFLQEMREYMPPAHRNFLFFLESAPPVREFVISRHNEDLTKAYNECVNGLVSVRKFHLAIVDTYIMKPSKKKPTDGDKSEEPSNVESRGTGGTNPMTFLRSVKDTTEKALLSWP
The experiment in a line: Reduction of LPS induced plasma kynurenine levels in C57BL/6 mice. It counts as in vivo. As to conditions: LPS-injected (6 mg/kg i.p.) C57BL/6 mice; test compound given orally 20 h after LPS; plasma KYN by LC/MS/MS at 2 hr post dosing. The text has this:
Inflammatory mediators such as Lipopolysaccharides (LPS) and Interferon-gamma (IFNg) are well-established inducers of IDO1 expression. Intraperitoneal (i.p.) administration of bacterial lipopolysaccharide (LPS) induces peak IDO1 activity in a variety of tissues within one day after LPS administration resulting in the production and release of kynurenine into the bloodstream (Takikawa, O., et al. (1986) J. Biol. Chem. 261:3648-53; Yoshida, H., et al. (1998) Cell 94:739-750). LPS-injected mice have been used as models to study IDO1 expression and activity. Three—eight fed C57 BL/6 mice (age 7-8 weeks, weight: about 20-22 g) were injected intrapritoneally with bacterial lipopolysaccharide (LPS; 26:B6 Sigma) at a concentration of 6 mg/kg. Animals were then housed in normal condition for 20 hours at which time the test compounds were administered orally in formulation containing 30% polyethylene glycol 400 (PEG 400) and 20% propylene glycol (PG) in normal saline (Dosing volume 10 mL/kg). Blood was drawn through retro-orbital bleeds into a tube containing 100 mM EDTA for plasma collection at the following times: just prior to LPS treatment, just prior to test compound dosing (0 hr) and then at 2 hr, 4 hr, 6 hr, 8 hr, 24 hr and 48 hr post-test compound dosing. Plasma KYN and drug levels were determined by LC/MS/MS using an API4000 mass spectrometer (Applied Biosystems) coupled to a Shimadzu Prominence LC system fitted with a C18 column.
The compounds of the invention decrease kynurenine levels. The compounds of the invention trigger a decrease of kynurenine levels at 2 hrs of at least 5%.
Consider `CNC(=O)c1cc(-c2nccc(/C(C#N)=N/c3ccc(F)c(Cl)c3)c2O)ccn1` [Compound 07, N-(3-Chloro-4-fluorophenyl)-3-hydroxy-2′-(methylcarbamoyl)-[2,4′-bipyridine]-4-carbimidoyl nitrile], for which the “percentage of decrease of kynurenine level at two hours” value (from here on “percentage of decrease … at two hours”) is recorded as 43%.
On to `N#C/C(=N\c1cccc(C(F)(F)F)c1)c1ccnc(-c2ccncc2)c1O` [Compound 28, 3-Hydroxy-N-(3-(trifluoromethyl)phenyl)-[2,4′-bipyridine]-4-carbimidoyl nitrile], for which the “percentage of decrease … at two hours” value is 70%.
Take `N#C/C(=N\c1ccccc1Cl)c1ccnc(-c2ccncc2)c1O` [Compound 20]: the “percentage of decrease … at two hours” value is 46%.
For `N#C/C(=N\c1ccc(F)c(Cl)c1)c1cc(F)ncc1O` [Compound 06, N-(3-Chloro-4-fluorophenyl)-2-fluoro-5-hydroxyIsonicotinimidoyl nitrile], the “percentage of decrease … at two hours” value amounted to 73%.
The figure for `CNC(=O)c1cc(-c2nccc(/C(C#N)=N/c3ccc(F)c(F)c3)c2O)ccn1` [Compound 37, N-(3,4-Difluorophenyl)-3-hydroxy-2′-(methylcarbamoyl)-[2,4′-bipyridine]-4-carbimidoyl nitrile] is 68%; for `COc1cc(-c2nccc(/C(C#N)=N/c3ccc(F)c(Cl)c3)c2O)ccn1` [Compound 15, N-(3-Chloro-4-fluorophenyl)-3-hydroxy-2′-methoxy-[2,4′-bipyridine]-4-carbimidoyl nitrile] it is 47%; for `Cc1cc(-c2nccc(/C(C#N)=N/c3ccc(F)cc3)c2O)ccn1` [Compound 11, N-(4-Fluorophenyl)-3-hydroxy-2′-methyl-[2,4′-bipyridine]-4-carbimidoyl nitrile] it is 82%.
`N#C/C(=N\c1ccc(F)c(Cl)c1)c1ccnc(Nc2ccccc2)c1O` [Compound 12, N-(3-Chloro-4-fluorophenyl)-3-hydroxy-2-(phenylamino)isonicotinimidoyl nitrile]: the “percentage of decrease … at two hours” value is 15%.
`Cc1cc(-c2nc(C)cc(/C(C#N)=N/c3ccc(F)c(Cl)c3)c2O)ccn1` [Compound 26, N-(3-Chloro-4-fluorophenyl)-3-hydroxy-2′,6-dimethyl-[2,4′-bipyridine]-4-carbimidoyl nitrile]: the “percentage of decrease … at two hours” value stood at 11%.
Then `N#C/C(=N\c1ccc(F)c(C(F)(F)F)c1)c1ccncc1O` [Compound 05, N-(4-Fluoro-3-(trifluoromethyl)phenyl)-3-hydroxyisonicotinimidoyl nitrile], with 64%.
For `N#C/C(=N\c1ccc(F)c(F)c1)c1ccnc(-c2ccncc2)c1O` [Compound 08, N-(3,4-Difluorophenyl)-3-hydroxy-[2,4′-bipyridine]-4-carbimidoyl nitrile], the “percentage of decrease … at two hours” value was found to be 83%.
